According to the supplement of paper PMC10307832:

Assays:
Assay in all cases: relative viability (nuclei count vs DMSO), 5 days (fraction); higher = more cells survive
[1] = test system: ChaGo-K-1
Outline: (§1)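 Lung cancer cell lines in 1536-well plates got either a single drug or a fixed anchor-drug dose together with five library-drug doses (not always all listed) in √10 steps, by pin tool, on the day after seeding. Nuclei were counted after 5 days, and relative viability is the treated-to-vehicle ratio of nuclei counts. Values are medians of duplicate plates.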

[2] = test system: EPLC-272H
Outline: as §1

[3] = test system: HCC-15
Outline: as §1

[4] = test system: HCC-366
Outline: as §1

[5] = test system: HCC-44
Outline: as §1

[6] = test system: HCC-78
Outline: as §1

[7] = test system: HCC-827
Outline: as §1

[8] = test system: LCLC-103H
Outline: as §1

[9] = test system: NCI-H1437
Outline: as §1

[10] = test system: NCI-H1792
Outline: as §1

[11] = test system: NCI-H1944
Outline: as §1

[12] = test system: NCI-H2085
Outline: as §1

[13] = test system: NCI-H2342
Outline: as §1

[14] = test system: NCI-H3122
Outline: as §1

[15] = test system: NCI-H358
Outline: as §1

[16] = test system: NCI-H727
Outline: as §1

[17] = test system: PC-14
Outline: as §1

[18] = test system: COR-L 105
Outline: as §1

[19] = test system: NCI-H661
Outline: as §1

[20] = test system: SK-LU-1
Outline: as §1

[21] = test system: SK-MES-1
Outline: as §1

[22] = test system: UMC-11
Outline: as §1

## COCC1(CO)C(=O)C2CCN1CC2 (stereo not drawn) [PRIMA-1MET] + NC(=O)Nc1cc(-c2cccc(F)c2)sc1C(=O)N[C@H]1CCCNC1 [AZD7762] (partner 0.2 µM)
[1]; first compound 0.2 µM
  relative viability: 0.765
[1]; first compound 0.6325 µM
  relative viability: 0.794
[1]; first compound 2 µM
  relative viability: 0.819
[1]; first compound 6.325 µM
  relative viability: 0.85
[1]; first compound 20 µM
  relative viability: 0.779
[2]; first compound 0.2 µM
  relative viability: 0.236
[2]; first compound 0.6325 µM
  relative viability: 0.123
[2]; first compound 2 µM
  relative viability: 0.178
[2]; first compound 6.325 µM
  relative viability: 0.262
[2]; first compound 20 µM
  relative viability: 0.147
[3]; first compound 0.2 µM
  relative viability: 1.17
[3]; first compound 0.6325 µM
  relative viability: 1.22
[3]; first compound 2 µM
  relative viability: 1.4
[3]; first compound 6.325 µM
  relative viability: 1.26
[3]; first compound 20 µM
  relative viability: 1.16
[4]; first compound 0.2 µM
  relative viability: 0.3
[4]; first compound 0.6325 µM
  relative viability: 0.186
[4]; first compound 2 µM
  relative viability: 0.223
[4]; first compound 6.325 µM
  relative viability: 0.281
[4]; first compound 20 µM
  relative viability: 0.168
[5]; first compound 0.2 µM
  relative viability: 1.02
[5]; first compound 0.6325 µM
  relative viability: 1.01
[5]; first compound 2 µM
  relative viability: 1.18
[5]; first compound 6.325 µM
  relative viability: 1.03
[5]; first compound 20 µM
  relative viability: 1.01
[6]; first compound 0.2 µM
  relative viability: 0.893
[6]; first compound 0.6325 µM
  relative viability: 0.62
[6]; first compound 2 µM
  relative viability: 0.555
[6]; first compound 6.325 µM
  relative viability: 0.69
[6]; first compound 20 µM
  relative viability: 0.174
[7]; first compound 0.2 µM
  relative viability: 0.206
[7]; first compound 0.6325 µM
  relative viability: 0.224
[7]; first compound 2 µM
  relative viability: 0.181
[7]; first compound 6.325 µM
  relative viability: 0.211
[7]; first compound 20 µM
  relative viability: 0.239
[8]; first compound 0.2 µM
  relative viability: 0.889
[8]; first compound 0.6325 µM
  relative viability: 0.732
[8]; first compound 2 µM
  relative viability: 0.673
[8]; first compound 6.325 µM
  relative viability: 0.768
[8]; first compound 20 µM
  relative viability: 0.756
[9]; first compound 0.2 µM
  relative viability: 1.16
[9]; first compound 0.6325 µM
  relative viability: 1.09
[9]; first compound 2 µM
  relative viability: 1.03
[9]; first compound 6.325 µM
  relative viability: 1.12
[9]; first compound 20 µM
  relative viability: 1.05
[10]; first compound 0.2 µM
  relative viability: 0.569
[10]; first compound 6.325 µM
  relative viability: 0.907
[10]; first compound 20 µM
  relative viability: 0.429
[11]; first compound 0.2 µM
  relative viability: 0.661
[11]; first compound 0.6325 µM
  relative viability: 0.43
[11]; first compound 2 µM
  relative viability: 0.381
[11]; first compound 6.325 µM
  relative viability: 0.533
[11]; first compound 20 µM
  relative viability: 0.511
[12]; first compound 0.2 µM
  relative viability: 1.09
[12]; first compound 0.6325 µM
  relative viability: 1.1
[12]; first compound 2 µM
  relative viability: 0.588
[12]; first compound 6.325 µM
  relative viability: 0.942
[12]; first compound 20 µM
  relative viability: 0.176
[13]; first compound 0.2 µM
  relative viability: 0.566
[13]; first compound 0.6325 µM
  relative viability: 0.371
[13]; first compound 6.325 µM
  relative viability: 0.531
[13]; first compound 20 µM
  relative viability: 0.41
[14]; first compound 0.2 µM
  relative viability: 0.854
[14]; first compound 0.6325 µM
  relative viability: 0.911
[14]; first compound 2 µM
  relative viability: 0.985
[14]; first compound 6.325 µM
  relative viability: 0.95
[14]; first compound 20 µM
  relative viability: 0.879
[15]; first compound 0.2 µM
  relative viability: 0.592
[15]; first compound 2 µM
  relative viability: 0.489
[15]; first compound 6.325 µM
  relative viability: 0.484
[15]; first compound 20 µM
  relative viability: 0.0265
[16]; first compound 0.2 µM
  relative viability: 0.505
[16]; first compound 0.6325 µM
  relative viability: 0.62
[16]; first compound 6.325 µM
  relative viability: 0.421
[16]; first compound 20 µM
  relative viability: 0.349
[17]; first compound 0.2 µM
  relative viability: 0.407
[17]; first compound 0.6325 µM
  relative viability: 0.386
[17]; first compound 2 µM
  relative viability: 0.319
[17]; first compound 6.325 µM
  relative viability: 0.387
[17]; first compound 20 µM
  relative viability: 0.178

## COCC1(CO)C(=O)C2CCN1CC2 (stereo not drawn) [PRIMA-1MET] + CCNC(=O)c1noc(-c2cc(C(C)C)c(O)cc2O)c1-c1ccc(CN2CCOCC2)cc1 [Luminespib] (partner 0.01 µM)
[18]; first compound 0.2 µM
  relative viability: 0.775
[18]; first compound 0.6325 µM
  relative viability: 0.687
[18]; first compound 2 µM
  relative viability: 0.845
[18]; first compound 6.325 µM
  relative viability: 0.808
[18]; first compound 20 µM
  relative viability: 0.111
[1]; first compound 0.2 µM
  relative viability: 0.694
[1]; first compound 0.6325 µM
  relative viability: 0.531
[1]; first compound 2 µM
  relative viability: 0.57
[1]; first compound 6.325 µM
  relative viability: 0.592
[1]; first compound 20 µM
  relative viability: 0.346
[2]; first compound 2 µM
  relative viability: 0.277
[2]; first compound 6.325 µM
  relative viability: 0.237
[2]; first compound 20 µM
  relative viability: 0.146
[3]; first compound 0.2 µM
  relative viability: 0.264
[3]; first compound 0.6325 µM
  relative viability: 0.232
[3]; first compound 2 µM
  relative viability: 0.393
[3]; first compound 6.325 µM
  relative viability: 0.408
[3]; first compound 20 µM
  relative viability: 0.197
[5]; first compound 0.2 µM
  relative viability: 1.36
[5]; first compound 0.6325 µM
  relative viability: 0.964
[5]; first compound 2 µM
  relative viability: 0.817
[5]; first compound 6.325 µM
  relative viability: 1.14
[5]; first compound 20 µM
  relative viability: 0.896
[7]; first compound 0.2 µM
  relative viability: 0.761
[7]; first compound 0.6325 µM
  relative viability: 0.624
[7]; first compound 2 µM
  relative viability: 0.303
[7]; first compound 6.325 µM
  relative viability: 0.477
[7]; first compound 20 µM
  relative viability: 0.447
[8]; first compound 0.2 µM
  relative viability: 1.05
[8]; first compound 0.6325 µM
  relative viability: 0.831
[8]; first compound 2 µM
  relative viability: 0.892
[8]; first compound 6.325 µM
  relative viability: 0.985
[8]; first compound 20 µM
  relative viability: 0.307
[9]; first compound 0.2 µM
  relative viability: 1.18
[9]; first compound 0.6325 µM
  relative viability: 1.08
[9]; first compound 2 µM
  relative viability: 1.09
[9]; first compound 6.325 µM
  relative viability: 1.16
[9]; first compound 20 µM
  relative viability: 1.01
[10]; first compound 0.2 µM
  relative viability: 0.533
[10]; first compound 0.6325 µM
  relative viability: 0.491
[10]; first compound 2 µM
  relative viability: 0.394
[10]; first compound 6.325 µM
  relative viability: 0.466
[10]; first compound 20 µM
  relative viability: 0.45
[11]; first compound 0.2 µM
  relative viability: 0.671
[11]; first compound 0.6325 µM
  relative viability: 0.612
[11]; first compound 2 µM
  relative viability: 0.61
[11]; first compound 6.325 µM
  relative viability: 0.685
[11]; first compound 20 µM
  relative viability: 0.724
[12]; first compound 0.2 µM
  relative viability: 0.55
[12]; first compound 0.6325 µM
  relative viability: 0.44
[12]; first compound 2 µM
  relative viability: 0.3
[12]; first compound 6.325 µM
  relative viability: 0.42
[12]; first compound 20 µM
  relative viability: 0.267
[13]; first compound 0.2 µM
  relative viability: 0.722
[13]; first compound 0.6325 µM
  relative viability: 0.696
[13]; first compound 2 µM
  relative viability: 0.57
[13]; first compound 6.325 µM
  relative viability: 0.675
[13]; first compound 20 µM
  relative viability: 0.602
[14]; first compound 0.2 µM
  relative viability: 0.0725
[14]; first compound 0.6325 µM
  relative viability: 0.0963
[14]; first compound 2 µM
  relative viability: 0.0983
[14]; first compound 6.325 µM
  relative viability: 0.0835
[14]; first compound 20 µM
  relative viability: 0.0732
[15]; first compound 0.2 µM
  relative viability: 0.314
[15]; first compound 0.6325 µM
  relative viability: 0.312
[15]; first compound 2 µM
  relative viability: 0.354
[15]; first compound 6.325 µM
  relative viability: 0.416
[15]; first compound 20 µM
  relative viability: 0.287
[19]; first compound 0.2 µM
  relative viability: 1.02
[19]; first compound 0.6325 µM
  relative viability: 0.886
[19]; first compound 2 µM
  relative viability: 0.965
[19]; first compound 6.325 µM
  relative viability: 0.929
[19]; first compound 20 µM
  relative viability: 0.886
[16]; first compound 0.2 µM
  relative viability: 0.615
[16]; first compound 0.6325 µM
  relative viability: 0.328
[16]; first compound 2 µM
  relative viability: 0.236
[16]; first compound 6.325 µM
  relative viability: 0.426
[16]; first compound 20 µM
  relative viability: 0.213
[17]; first compound 0.2 µM
  relative viability: 0.137
[17]; first compound 0.6325 µM
  relative viability: 0.176
[17]; first compound 2 µM
  relative viability: 0.169
[17]; first compound 6.325 µM
  relative viability: 0.182
[17]; first compound 20 µM
  relative viability: 0.129
[20]; first compound 0.2 µM
  relative viability: 0.203
[20]; first compound 0.6325 µM
  relative viability: 0.199
[20]; first compound 2 µM
  relative viability: 0.199
[20]; first compound 6.325 µM
  relative viability: 0.212
[20]; first compound 20 µM
  relative viability: 0.137
[21]; first compound 0.2 µM
  relative viability: 1.04
[21]; first compound 0.6325 µM
  relative viability: 0.579
[21]; first compound 2 µM
  relative viability: 0.885
[21]; first compound 6.325 µM
  relative viability: 0.829
[21]; first compound 20 µM
  relative viability: 0.746
[22]; first compound 0.2 µM
  relative viability: 1.06
[22]; first compound 0.6325 µM
  relative viability: 0.818
[22]; first compound 2 µM
  relative viability: 0.978
[22]; first compound 6.325 µM
  relative viability: 0.988
[22]; first compound 20 µM
  relative viability: 0.917
